Test system: rat sciatic nerve crush injury model
Experiment: Macrophage phenotypes after sciatic nerve injury (immunohistological evaluation, rat sciatic nerve crush injury model)
Format: in vivo
Set-up: Number of M2 macrophages: unit: per mm^2
Method: Effects of methylcobalamin on macrophage phenotypes after sciatic nerve injury were analyzed by an immunohistological evaluation method. Specifically, the analysis was carried out as follows. Using transverse nerve sections at 2.5 mm in the proximal direction, at the injury site, and at 2.5, 5.0, and 7.5 mm in the distal direction, macrophages were evaluated by immunofluorescence staining at 1, 3, 7, and 14 days after sciatic nerve injury. The proximal direction refers to a cell body side of an axon with respect to an injury site, and the distal direction refers to a terminal side of an axon with respect to an injury site. Each of the distances indicates a distance from the injury site (the same applies to Example 8). Macrophages were labeled with CD68, an M1 marker iNOS, and an M2 marker CD206. The proportion of M1 macrophage was calculated by the following formula: Proportion of M1 macrophage (%)=number of M1-marker positive macrophages per mm^2/number of macrophages per mm^2×100. A more detailed description will be provided below.
Six-week-old male Wistar rats (about 200 g) were used. The left sciatic nerve was exteriorized, and crush injury of the sciatic nerve was made on the proximal side by forceps. The nerve was crushed for 10 seconds three times at 10-second intervals. The fascia and skin were sutured using 3-0 nylon. A non-injury group which underwent only sciatic nerve exposure, an untreated group, and a methylcobalamin treatment group were compared. To administer methylcobalamin continuously, an osmotic minipump was placed and left in the dorsal subcutaneous space, and methylcobalamin was administered at a dose of 1 mg/kg/day. In an untreated group, physiological saline was administered instead of methylcobalamin according to the same procedure.
At 1, 3, 7, and 14 days after the surgery, rats were anesthetized with an anesthetic agent. The left sciatic nerve was collected, fixed with 4% PFA for 7 days and with 20% sucrose for 24 hours, and the fixed nerve was freeze-embedded. The embedded tissue was sliced into a 5-μm-thick slice in a nerve short-axis direction and placed on a glass slide. Slices were obtained from 5 positions of 2.5 mm in the proximal direction from an injured region, the injured region, and 2.5, 5.0, and 7.5 mm in the distal direction. The slices were dried for 1 hour and fixed with 95% methanol for 30 minutes. The fixed slices were blocked and allowed to react with primary antibodies at 4° C. overnight. The cells were further allowed to react with a secondary antibody at room temperature for 1 hour so that the nuclei were labeled with DAPI.
The primary antibodies used were a mouse anti-CD68 monoclonal antibody (Abcam), a rabbit anti-iNOS monoclonal antibody (Abcam), a rabbit anti-CD206 monoclonal antibody (Abeam), a rabbit anti-neurofilament 200 (NF 200) polyclonal antibody (SIGMA), and a mouse anti-myelin basic protein (MBP) monoclonal antibody (Calbiochem). The secondary antibodies used were an Alexa 488-labeled goat anti-mouse IgG antibody (Life Technologies), an Alexa 488-labeled goat anti-rabbit IgG antibody (Life Technologies), an Alexa 568-labeled goat anti-mouse IgG antibody (Life Technologies), and an Alexa 568-labeled goat anti-rabbit IgG antibody (Life Technologies).

[1] = POD1, 2.5 mm in the distal direction, 1 mg/kg/day
[2] = POD1, 2.5 mm in the proximal direction, 1 mg/kg/day
[3] = POD1, 5.0 mm in the distal direction, 1 mg/kg/day
[4] = POD1, 7.5 mm in the distal direction, 1 mg/kg/day
[5] = POD3, 2.5 mm in the distal direction, 1 mg/kg/day
[6] = POD3, 2.5 mm in the proximal direction, 1 mg/kg/day
[7] = POD3, 5.0 mm in the distal direction, 1 mg/kg/day
[8] = POD3, 7.5 mm in the distal direction, 1 mg/kg/day
[9] = POD7, 2.5 mm in the distal direction, 1 mg/kg/day
[10] = POD7, 2.5 mm in the proximal direction, 1 mg/kg/day
[11] = POD7, 5.0 mm in the distal direction, 1 mg/kg/day
[12] = POD7, 7.5 mm in the distal direction, 1 mg/kg/day
[13] = POD14, 2.5 mm in the distal direction, 1 mg/kg/day
[14] = POD14, 2.5 mm in the proximal direction, 1 mg/kg/day
[15] = POD14, 5.0 mm in the distal direction, 1 mg/kg/day
[16] = POD14, 7.5 mm in the distal direction, 1 mg/kg/day
[17] = POD14, Injury site, 1 mg/kg/day

In the case of `C/C1=C2/[N-][C@H]([C@H](CC(N)=O)[C@@]2(C)CCC(=O)NC[C@@H](C)OP(=O)([O-])O[C@H]2[C@@H](O)[C@@H](n3cnc4cc(C)c(C)cc43)O[C@@H]2CO)[C@]2(C)N=C(/C(C)=C3N=C(/C=C4N=C1[C@@H](CCC(N)=O)C\4(C)C)[C@@H](CCC(N)=O)[C@]\3(C)CC(N)=O)[C@@H](CCC(N)=O)[C@]2(C)CC(N)=O.[CH3-].[Co+3]` [MeCbl, methylcobalamin], the “Number of M2 macrophages” value (POD1, 2.5 mm in the distal direction) is reported as 46.53, the M1 macrophage ratio [1] is reported as 0.183 and the M2 macrophage ratio [1] is reported as 0.658. The “Number of M1 macrophages” value [1] was 10.27 per mm^2, the Number of macrophages [1] was 64.37 per mm^2 and the “Number of M2 macrophages” value (POD1, 2.5 mm in the proximal direction) was 32.72. The M1 macrophage ratio [2] was 0.095, the M2 macrophage ratio [2] was 0.743 and the “Number of M1 macrophages” value [2] was 3.42 per mm^2. For the same compound, the Number of macrophages [2] was 40.53 per mm^2, the “Number of M2 macrophages” value (POD1, 5.0 mm in the distal direction) was 33.90 and the M1 macrophage ratio [3] was 0.109. For the same compound, the M2 macrophage ratio [3] was 0.765, the “Number of M1 macrophages” value [3] was 4.40 per mm^2 and the Number of macrophages [3] was 43.67 per mm^2. The “Number of M2 macrophages” value (POD1, 7.5 mm in the distal direction) was 32.83, the M1 macrophage ratio [4] was 0.097 and the M2 macrophage ratio [4] was 0.777. For the same compound, the “Number of M1 macrophages” value [4] was 3.21 per mm^2, the Number of macrophages [4] was 35.68 per mm^2 and the “Number of M2 macrophages” value (POD1, Injury site) was 139.28. The M1 macrophage ratio (POD1, Injury site, 1 mg/kg/day) was 0.195, the M2 macrophage ratio (POD1, Injury site, 1 mg/kg/day) was 0.431 and the “Number of M1 macrophages” value (POD1, Injury site, 1 mg/kg/day) was 63.55 per mm^2. The Number of macrophages (POD1, Injury site, 1 mg/kg/day) was 336.86 per mm^2, the “Number of M2 macrophages” value (POD3, 2.5 mm in the distal direction) was 147.74 and the M1 macrophage ratio [5] was 0.165. The M2 macrophage ratio [5] was 0.693, the “Number of M1 macrophages” value [5] was 23.50 per mm^2 and the Number of macrophages [5] was 181.38 per mm^2. The “Number of M2 macrophages” value (POD3, 2.5 mm in the proximal direction) was 43.76, the M1 macrophage ratio [6] was 0.068 and the M2 macrophage ratio [6] was 0.708. For the same compound, the “Number of M1 macrophages” value [6] was 3.04 per mm^2, the Number of macrophages [6] was 48.52 per mm^2 and the “Number of M2 macrophages” value (POD3, 5.0 mm in the distal direction) was 117.16. For the same compound, the M1 macrophage ratio [7] was 0.145, the M2 macrophage ratio [7] was 0.659 and the “Number of M1 macrophages” value [7] was 13.13 per mm^2. The Number of macrophages [7] was 135.88 per mm^2, the “Number of M2 macrophages” value (POD3, 7.5 mm in the distal direction) was 115.48 and the M1 macrophage ratio [8] was 0.186. The M2 macrophage ratio [8] was 0.694, the “Number of M1 macrophages” value [8] was 15.57 per mm^2 and the Number of macrophages [8] was 124.99 per mm^2. The “Number of M2 macrophages” value (POD3, Injury site) was 603.12, the M1 macrophage ratio (POD3, Injury site, 1 mg/kg/day) was 0.163 and the M2 macrophage ratio (POD3, Injury site, 1 mg/kg/day) was 0.479. The “Number of M1 macrophages” value (POD3, Injury site, 1 mg/kg/day) was 198.96 per mm^2, the Number of macrophages (POD3, Injury site, 1 mg/kg/day) was 1261.77 per mm^2 and the Number of macrophages (POD3, Injury site, 1 mg/kg/day, listed as methylcobalamin) was “significantly decreased”. For the same compound, the “Number of M2 macrophages” value (POD7, 2.5 mm in the distal direction) was 457.16, the M1 macrophage ratio [9] was 0.043 and the M2 macrophage ratio [9] was 0.463. The “Number of M1 macrophages” value [9] was 37.09 per mm^2, the Number of macrophages [9] was 921.92 per mm^2 and the “Number of M2 macrophages” value (POD7, 2.5 mm in the proximal direction) was 26.25. For the same compound, the M1 macrophage ratio [10] was 0.049, the M2 macrophage ratio [10] was 0.642 and the “Number of M1 macrophages” value [10] was 1.54 per mm^2. For the same compound, the Number of macrophages [10] was 36.63 per mm^2, the “Number of M2 macrophages” value (POD7, 5.0 mm in the distal direction) was 432.13 and the M1 macrophage ratio [11] was 0.039. The M2 macrophage ratio [11] was 0.505, the “Number of M1 macrophages” value [11] was 25.29 per mm^2 and the Number of macrophages [11] was 763.17 per mm^2. For the same compound, the “Number of M2 macrophages” value (POD7, 7.5 mm in the distal direction) was 327.16, the M1 macrophage ratio [12] was 0.045 and the M2 macrophage ratio [12] was 0.506. The “Number of M1 macrophages” value [12] was 22.71 per mm^2, the Number of macrophages [12] was 584.14 per mm^2 and the “Number of M2 macrophages” value (POD7, Injury site) was 654.63. The M1 macrophage ratio (POD7, Injury site, 1 mg/kg/day) was 0.046, the M2 macrophage ratio (POD7, Injury site, 1 mg/kg/day) was 0.571 and the “Number of M1 macrophages” value (POD7, Injury site, 1 mg/kg/day) was 47.56 per mm^2. For the same compound, the Number of macrophages (POD7, Injury site, 1 mg/kg/day) was 1096.37 per mm^2, the Number of macrophages (POD7, Injury site, 1 mg/kg/day, listed as methylcobalamin) was “significantly decreased” and the “Number of M2 macrophages” value (POD14, 2.5 mm in the distal direction) was 443.91. The M1 macrophage ratio [13] was 0.033, the M2 macrophage ratio [13] was 0.459 and the “Number of M1 macrophages” value [13] was 27.86 per mm^2. For the same compound, the Number of macrophages [13] was 898.81 per mm^2, the “Number of M2 macrophages” value (POD14, 2.5 mm in the proximal direction) was 35.65 and the M1 macrophage ratio [14] was 0.039. For the same compound, the M2 macrophage ratio [14] was 0.638, the “Number of M1 macrophages” value [14] was 2.34 per mm^2 and the Number of macrophages [14] was 51.79 per mm^2. For the same compound, the “Number of M2 macrophages” value (POD14, 5.0 mm in the distal direction) was 434.68, the M1 macrophage ratio [15] was 0.029 and the M2 macrophage ratio [15] was 0.487. The “Number of M1 macrophages” value [15] was 22.35 per mm^2, the Number of macrophages [15] was 827.51 per mm^2 and the “Number of M2 macrophages” value (POD14, 7.5 mm in the distal direction) was 417.86. For the same compound, the M1 macrophage ratio [16] was 0.024, the M2 macrophage ratio [16] was 0.487 and the “Number of M1 macrophages” value [16] was 15.59 per mm^2. For the same compound, the Number of macrophages [16] was 752.29 per mm^2, the “Number of M2 macrophages” value (POD14, Injury site) was 560.45 and the M1 macrophage ratio [17] was 0.025. The M2 macrophage ratio [17] was 0.610, the “Number of M1 macrophages” value [17] was 21.33 per mm^2 and the Number of macrophages [17] was 899.57 per mm^2. For the same compound, the Number of macrophages (POD14, Injury site, 1 mg/kg/day, listed as methylcobalamin) was “significantly decreased”, the “numbers of M1 macrophages as compared to the untreated group” value (all evaluation days (1, 3, 7, 14 days), 1 mg/kg/day) was “significantly decreased” and the “numbers of M1 macrophages as compared to the untreated group” value (distal portions, 7 and 14 days after the surgery, 1 mg/kg/day) was “significant differences”. The “number of macrophages as compared to the untreated group” value (distal positions, 14 days after the surgery, 1 mg/kg/day) was “significant difference” and the “numbers of M2 macrophages as compared to the untreated group” value (injury site, 1, 7 and 14 days after the surgery, 1 mg/kg/day) was “significantly increased”.
